Results: patent US20240381871A1, “5-HALOALKOXY-PYRIMIDINE COMPOUNDS AS HERBICIDES” (SYNGENTA CROP PROTECTION AG, priority 2020, published 2024)

Key:
Format in all cases: in vivo
Zea mays (ZEAMX) = experiment: Comparative post-emergence test, crop damage; details: 336 h, after 14 days, read-out: ZEAMX damage (100=total damage to plant; 0=no damage)
Method: (§1) Seeds of test species were sown in standard soil in pots. After cultivation for 10 days (post-emergence) under controlled conditions in a glasshouse (at 24/16° C., day/night; 14 hours light; 65% humidity), the plants were sprayed with an aqueous spray solution derived from the formulation of the technical active ingredient in 0.6 ml acetone and 45 ml formulation solution containing 10.6% Emulsogen EL (Registry number 61791-12-6), 42.2% N-methyl pyrrolidone, 42.2% dipropylene glycol monomethyl ether (CAS RN 34590-94-8) and 0.2% X-77 (CAS RN 11097-66-8). The test plants were then grown in a glasshouse under controlled conditions in a glasshouse (at 24/16° C., day/night; 14 hours light; 65% humidity) and watered twice daily. After 14 days, the test was evaluated (100=total damage to plant; 0=no damage to plant). • Weeds: Ipomea hederacea (IPOHE) • Crops: Zea mays (ZEAMX)

Setaria faberi (SETFA) [1] = experiment: Pre-emergence herbicidal glasshouse test; details: rate 250, evaluated after 13 days, the values are: phytotoxicity score (1-5)
Method: (§2) Seeds of a variety of test species are sown in standard soil in pots, Amaranthus retoflexus (AMARE), Abutilon theophrasti (ABUTH), Setaria faberi (SETFA), Echinochloa crus-galli (ECHCG) and Ipomoea hederacea (IPOHE). After cultivation for one day (pre-emergence) or after 8 days cultivation (post-emergence) under controlled conditions in a glasshouse (at 24/16° C., day/night; 14 hours light; 65% humidity), the plants are sprayed with an aqueous spray solution derived from the formulation of the technical active ingredient in acetone/water (50:50) solution containing 0.5% Tween 20 (polyoxyethelyene sorbitan monolaurate, CAS RN 9005-64-5). Compounds are applied at 1000 g/ha unless otherwise stated. The test plants are then grown in a glasshouse under controlled conditions in a glasshouse (at 24/16° C., day/night; 14 hours light; 65% humidity) and watered twice daily. After 13 days for pre and post-emergence, the test is evaluated for the percentage damage caused to the plant.

[2] = tested on: Amaranthus retoflexus (AMARE); experiment: Pre-emergence herbicidal glasshouse test; details: rate 250, evaluated after 13 days, the values are:
Method: as §2

[3] = tested on: Echinochloa crus-galli (ECHCG); experiment: Pre-emergence herbicidal glasshouse test; details: rate 250, evaluated after 13 days, the values are: phytotoxicity score (1-5)
Method: as §2

[4] = tested on: Ipomoea hederacea (IPOHE); experiment: Pre-emergence herbicidal glasshouse test; details: rate 250, evaluated after 13 days, the values are:
Method: as §2

[5] = tested on: Abutilon theophrasti (ABUTH); experiment: Pre-emergence herbicidal glasshouse test; details: rate 250, evaluated after 13 days, the values are:
Method: as §2

Setaria faberi (SETFA) [6] = experiment: Post-emergence herbicidal glasshouse test; details: rate 250, evaluated after 13 days, the values are:
Method: as §2

[7] = tested on: Amaranthus retoflexus (AMARE); experiment: Post-emergence herbicidal glasshouse test; details: rate 250, evaluated after 13 days, the values are: phytotoxicity score (1-5 scale)
Method: as §2

[8] = tested on: Echinochloa crus-galli (ECHCG); experiment: Post-emergence herbicidal glasshouse test; details: rate 250, evaluated after 13 days, the values are: phytotoxicity score (1-5 scale)
Method: as §2

[9] = tested on: Ipomoea hederacea (IPOHE); experiment: Post-emergence herbicidal glasshouse test; details: rate 250, evaluated after 13 days, the values are: phytotoxicity score (1-5 scale)
Method: as §2

[10] = tested on: Abutilon theophrasti (ABUTH); experiment: Post-emergence herbicidal glasshouse test; details: rate 250, evaluated after 13 days, the values are:
Method: as §2

Ipomea hederacea (IPOHE) = experiment: Comparative post-emergence test, weed control; details: Ipomoea hederacea, 336 h, after 14 days, read-out: IPOHE damage (100=total damage to plant; 0=no damage)
Method: as §1

| SMILES | plant injury at 60 g/ha (Zea mays (ZEAMX)) | plant injury at 125 g/ha (Zea mays (ZEAMX)) | plant injury at 250 g/ha (Zea mays (ZEAMX)) | plant injury at 500 g/ha (Zea mays (ZEAMX)) | Pre-emergence activity SETFA (% phytotoxicity) (Setaria faberi (SETFA) [1]) | Pre-emergence activity AMARE (% phytotoxicity) [2] | Pre-emergence activity ECHCG (% phytotoxicity) [3] | Pre-emergence activity IPOHE (% phytotoxicity) [4] | Pre-emergence activity ABUTH (% phytotoxicity) [5] | Post-emergence activity SETFA (% phytotoxicity) (Setaria faberi (SETFA) [6]) | Post-emergence activity AMARE (% phytotoxicity) [7] | Post-emergence activity ECHCG (% phytotoxicity) [8] | Post-emergence activity IPOHE (% phytotoxicity) [9] | Post-emergence activity ABUTH (% phytotoxicity) [10] | pest or weed control at 2 g/ha (Ipomea hederacea (IPOHE)) | pest or weed control at 8 g/ha (Ipomea hederacea (IPOHE)) | pest or weed control at 60 g/ha (Ipomea hederacea (IPOHE)) | pest or weed control at 125 g/ha (Ipomea hederacea (IPOHE)) | pest or weed control at 250 g/ha (Ipomea hederacea (IPOHE)) | pest or weed control at 500 g/ha (Ipomea hederacea (IPOHE)) | also measured |
| --- | --- | --- | --- | --- | --- | --- | --- | --- | --- | --- | --- | --- | --- | --- | --- | --- | --- | --- | --- | --- | --- |
| FC(F)Oc1cnc(Oc2ccccc2-c2cc(C(F)F)no2)nc1 [Compound 1.003] | 0% | 0% | 0% | 10% | 4 | 5 | 2 | 3 | 4 | 3 | 4 | 3 | 4 | 4 | 10% | 20% | 30% | 70% | 70% | 90% | plant injury at 2 g/ha (Zea mays (ZEAMX)): 0%; plant injury at 8 g/ha (Zea mays (ZEAMX)): 0% |
| FC(F)Oc1cnc(Oc2cccc(Cl)c2-c2cc(C(F)F)no2)nc1 [Compound 1.004] | 0% | 10% | 20% | 40% | 5 | 5 | 4 | 5 | 4 | 4 | 4 | 4 | 4 | 4 | 20% | 50% | 70% | 70% | 90% | 90% | plant injury at 2 g/ha (Zea mays (ZEAMX)): 0%; plant injury at 8 g/ha (Zea mays (ZEAMX)): 0% |
| FC(F)Oc1cnc(Oc2cccc(Br)c2-c2cc(C(F)F)no2)nc1 [Compound 1.005] | 10% | 20% | 30% | 30% | 5 | 5 | 3 | 4 | 3 | 4 | 4 | 3 | 5 | 4 | 30% | 20% | 40% | 70% | 90% | 80% | – |
